Laboratory results from patent US11590116B2 (THERAVANCE BIOPHARMA R&D IP, LLC, priority 2019, dated 2023).

Tests used:
[1] = biological target: T1, recombinant human ALK5 (TGF-βR1) protein (Homo sapiens, UniProt P36897); assay: Biochemical ALK5 (TGF-βR1) assay to measure pKi (LANCE Ultra ULight kinase assay); details: apparent pKi from pIC50 by Cheng-Prusoff, read-out: ALK5 pKi (converted)
T1 construct: purchased Life Technologies PR9075A
T1 sequence (P36897 34-503): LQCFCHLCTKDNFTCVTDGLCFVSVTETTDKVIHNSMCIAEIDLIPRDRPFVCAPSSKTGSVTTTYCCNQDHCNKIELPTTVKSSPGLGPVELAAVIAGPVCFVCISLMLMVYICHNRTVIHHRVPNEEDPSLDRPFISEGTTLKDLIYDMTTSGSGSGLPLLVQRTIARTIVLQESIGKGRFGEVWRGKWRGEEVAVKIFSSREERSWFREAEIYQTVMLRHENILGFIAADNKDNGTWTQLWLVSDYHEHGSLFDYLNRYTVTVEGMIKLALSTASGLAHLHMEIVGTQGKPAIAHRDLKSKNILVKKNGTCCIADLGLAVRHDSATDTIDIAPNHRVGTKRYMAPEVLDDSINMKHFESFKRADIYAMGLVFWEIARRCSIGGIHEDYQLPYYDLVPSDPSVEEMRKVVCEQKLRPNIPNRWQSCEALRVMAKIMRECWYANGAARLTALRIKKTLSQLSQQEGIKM
Procedure, shortened: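 Compounds (10 μM to 25 pM) preincubated 60 minutes at room temperature with enzyme, then reaction run 60 minutes at 37° C with ATP added as 125 μM (5× final). Stopped with EDTA plus Eu-anti-phospho-Topoisomerase 2-alpha (Thr1342) antibody, TR-FRET read at 665 nm; pIC50 converted to pKi via Cheng-Prusoff.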

[2] = system: TGF-β-stimulated SMAD3 phosphorylation in BEAS-2B cells; assay: Cellular ALK5 potency assay, inhibition of TGF-β stimulated pSMAD3 formation in BEAS-2B cells; assay type: cell-based; details: Homo sapiens; inhibition of TGF-β stimulated pSMAD3 formation, BEAS-2B cells; read-out: BEAS2B pIC50 (converted)
Procedure, shortened: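 Potency is reported as pIC50, derived from concentration-dependent reduction of pSMAD3 AlphaLISA signal against TGF-β-stimulated cells without compound. BEAS-2B cells received compound for 1 h before a 30-min stimulation with 10 ng/mL TGF-β.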

Ki [1] [nM]	Compound	IC50 [2] [nM]
0.398 to 3.16	Cc1cccc(-c2[nH]cnc2-c2ccc3nccc(C(=O)OC[C@H]4CC[C@H](N)CC4)c3c2)n1 [Compound 1081, (4-aminocyclohexyl)methyl 6-[5-(6-methyl-2-pyridyl)-1H-imidazol-4-yl]quinoline-4-carboxylate]	200 to 1260
0.0398 to 0.316	CN[C@H]1CC[C@H](OC(=O)c2cnc3ccc(-c4nc[nH]c4-c4cccc(C)n4)cc3c2)CC1 [Compound 1129, [4-(methylamino)cyclohexyl] 6-[5-(6-methyl-2-pyridyl)-1H-imidazol-4-yl]quinoline-3-carboxylate]	25.1 to 158
0.0398 to 0.316	Cc1cccc(-c2[nH]cnc2-c2ccc3ncc(C(=O)OCCN4CCC5NCCC5C4)cc3c2)n1 (stereo not shown) [Compound 1065, 2-(1,2,3,3a,4,6,7,7a-octahydropyrrolo[3,2-c]pyridin-5-yl)ethyl 6-[5-(6-methyl-2-pyridyl)-1H-imidazol-4-yl]quinoline-3-carboxylate]	200 to 1260
0.0398 to 0.316	Cc1cccc(-c2n[nH]cc2-c2ccc3nccc(C(=O)NCCN4CCOCC4)c3n2)n1 [Compound 802, 6-[3-(6-methyl-2-pyridyl)-1H-pyrazol-4-yl]-N-(2-morpholinoethyl)-1,5-naphthyridine-4-carboxamide]	200 to 1260
0.0398 to 0.316	COC(=O)[C@H]1CNCCN1CCNc1cnc2ccc(-c3nc[nH]c3-c3cccc(C)n3)cc2c1 [Compound 723, methyl (2R)-1-[2-[[6-[5-(6-methyl-2-pyridyl)-1H-imidazol-4-yl]-3-quinolyl]amino]ethyl]piperazine-2-carboxylate]	200 to 1260
0.0398 to 0.316	Cc1cccc(-c2[nH]cnc2-c2ccc3ncc(C(=O)OCCN4CCN5CCCC5C4)cc3c2)n1 (stereo not shown) [Compound 1067, 2-(3,4,6,7,8,8a-hexahydro-1H-pyrrolo[1,2-a]pyrazin-2-yl)ethyl 6-[5-(6-methyl-2-pyridyl)-1H-imidazol-4-yl]quinoline-3-carboxylate]	25.1 to 158
0.0398 to 0.316	Cc1cccc(-c2[nH]ncc2-c2ccc3ncc(C(=O)OC[C@@H]4CCCCN4)cc3c2)n1 [Compound 1205, [(2S)-2-piperidyl]methyl 6-[5-(6-methyl-2-pyridyl)-1H-pyrazol-4-yl]quinoline-3-carboxylate]	< 20
0.0398 to 0.316	Cc1cccc(-c2[nH]cnc2-c2ccc3ncc(-c4nccc(C(=O)OCC5CNC5)n4)cc3c2)n1 [Compound 1098, azetidin-3-ylmethyl 2-[6-[5-(6-methyl-2-pyridyl)-1H-imidazol-4-yl]-3-quinolyl]pyrimidine-4-carboxylate]	200 to 1260
0.0398 to 0.316	Cc1cccc(-c2[nH]cnc2-c2ccc3ncc(C(=O)OCCCN4CCC5(CC4)CNC5)cc3c2)n1 [Compound 904, 3-(2,7-diazaspiro[3.5]nonan-7-yl)propyl 6-(5-(6-methylpyridin-2-yl)-1H-imidazol-4-yl)quinoline-3-carboxylate]	200 to 1260
< 0.0316	Cc1cccc(-c2[nH]cnc2-c2ccc3ncc(-c4ccnc(C(=O)O)c4)cc3c2)n1 [Compound 1092, 4-[6-[5-(6-methyl-2-pyridyl)-1H-imidazol-4-yl]-3-quinolyl]pyridine-2-carboxylic acid]	1580 to 10000

The next lines start with the compound.

Compound	Ki [1] [nM]	IC50 [2] [nM]
Cc1cccc(-c2[nH]cnc2-c2ccc3ncc(Nc4ccc(N5CCN(C)CC5)cn4)cc3n2)n1 [Compound 653, N-(5-(4-methylpiperazin-1-yl)pyridin-2-yl)-6-(5-(6-methylpyridin-2-yl)-1H imidazol-4-yl)-1,5-naphthyridin-3-amine]	0.0398 to 0.316	25.1 to 158
Cc1cccc(-c2[nH]cnc2-c2ccc3ncc(Nc4nc(CN5CCNCC5)cs4)cc3c2)n1 [Compound 164, N-[6-[5-(6-methyl-2-pyridyl)-1H-imidazol-4-yl]-3-quinolyl]-4-(piperazin-1-ylmethyl)thiazol-2-amine]	0.0398 to 0.316	200 to 1260
Cc1cccc(-c2[nH]cnc2-c2ccc3ncc(C4=CCCCC4)cc3c2)n1 [Compound 147, 3-(cyclohexen-1-yl)-6-[5-(6-methyl-2-pyridyl)-1H-imidazol-4-yl]quinoline]	0.0398 to 0.316	25.1 to 158
Cc1cccc(-c2n[nH]cc2-c2ccc3ncc(-c4cccc(F)c4)cc3n2)n1 [Compound 58, 7-(3-fluorophenyl)-2-[3-(6-methyl-2-pyridyl)-1H-pyrazol-4-yl]-1,5-naphthyridine]	0.0398 to 0.316	25.1 to 158
Cc1cccc(-c2n[nH]cc2-c2ccc3ncc(-c4ccnc(C#N)c4)cc3n2)n1 [Compound 9, 4-[6-[3-(6-methyl-2-pyridyl)-1H-pyrazol-4-yl]-1,5-naphthyridin-3-yl]pyridine-2-carbonitrile]	< 0.0316	< 20
Cc1cccc(-c2n[nH]cc2-c2ccc3ncc(-c4cn(CCN5CCOCC5)nn4)cc3n2)n1 [Compound 340, 4-[2-[4-[6-[3-(6-methyl-2-pyridyl)-1H-pyrazol-4-yl]-1,5-naphthyridin-3-yl]triazol-1-yl]ethyl]morpholine]	0.0398 to 0.316	25.1 to 158
Cc1cccc(-c2n[nH]cc2-c2ccc3ncc(N4CCC(N(C)C)CC4)cc3n2)n1 [Compound 141, N,N-dimethyl-1-[6-[3-(6-methyl-2-pyridyl)-1H-pyrazol-4-yl]-1,5-naphthyridin-3-yl]piperidin-4-amine]	< 0.0316	25.1 to 158
Cc1cccc(-c2[nH]cnc2-c2ccc3ncc(-c4cccc(NC5CCNCC5)c4)cc3c2)n1 [Compound 686, N-[3-[6-[5-(6-methyl-2-pyridyl)-1H-imidazol-4-yl]-3-quinolyl]phenyl]piperidin-4-amine]	< 0.0316	25.1 to 158
Cc1cccc(-c2[nH]cnc2-c2ccc3ncc(C(=O)OCC45CCC(CC4)N5)cc3c2)n1 [Compound 780, 7-azabicyclo[2.2.1]heptan-1-ylmethyl 6-[5-(6-methyl-2-pyridyl)-1H-imidazol-4-yl]quinoline-3-carboxylate]	0.398 to 3.16	25.1 to 158
Cc1nc(-c2n[nH]cc2-c2ccc3ncc(N4CCN(C(C)C)CC4)cc3n2)ccc1F [Compound 687, 2-[3-(5-fluoro-6-methyl-2-pyridyl)-1H-pyrazol-4-yl]-7-(4-isopropylpiperazin-1-yl)-1,5-naphthyridine]	< 0.0316	25.1 to 158
Cc1cccc(-c2[nH]cnc2-c2ccc3ncc(C4=CC[C@@H](N)CC4)cc3c2)n1 [Compound 171, (1S)-4-[6-[5-(6-methyl-2-pyridyl)-1H-imidazol-4-yl]-3-quinolyl]cyclohex-3-en-1-amine]	< 0.0316	< 20
Cc1cccc(-c2n[nH]cc2-c2ccc3ncc(N4CCN(CC#N)CC4)cc3n2)n1 [Compound 299, 2-[4-[6-[3-(6-methyl-2-pyridyl)-1H-pyrazol-4-yl]-1,5-naphthyridin-3-yl]piperazin-1-yl]acetonitrile]	< 0.0316	< 20
Cc1cccc(-c2n[nH]cc2-c2ccc3ncc(-c4nnc5n4CCN5)cc3n2)n1 [Compound 102, 7-(6,7-dihydro-5H-imidazo[2,1-c][1,2,4]triazol-3-yl)-2-[3-(6-methyl-2-pyridyl)-1H-pyrazol-4-yl]-1,5-naphthyridine]	0.0398 to 0.316	1580 to 10000
Cc1cccc(-c2n[nH]cc2-c2ccc3ncc(N4CCN(CCO)CC4)cc3n2)n1 [Compound 639, 2-[4-[6-[3-(6-methyl-2-pyridyl)-1H-pyrazol-4-yl]-1,5-naphthyridin-3-yl]piperazin-1-yl]ethanol]	< 0.0316	25.1 to 158
Cc1cccc(-c2n[nH]cc2-c2ccc3ncc(-c4cncs4)cc3n2)n1 [Compound 190, 5-[6-[3-(6-methyl-2-pyridyl)-1H-pyrazol-4-yl]-1,5-naphthyridin-3-yl]thiazole]	< 0.0316	< 20
Cc1cccc(-c2n[nH]cc2-c2ccc3ncc(N4CCNC[C@H]4C)cc3n2)n1 [Compound 271, 7-[(2R)-2-methylpiperazin-1-yl]-2-[3-(6-methyl-2-pyridyl)-1H-pyrazol-4-yl]-1,5-naphthyridine]	0.0398 to 0.316	25.1 to 158
Cc1cccc(-c2n[nH]cc2-c2ccc3ncc(-c4c[nH]nc4C(F)(F)F)cc3n2)n1 [Compound 484, 2-[3-(6-methyl-2-pyridyl)-1H-pyrazol-4-yl]-7-[3-(trifluoromethyl)-1H-pyrazol-4-yl]-1,5-naphthyridine]	0.0398 to 0.316	< 20
Cc1cccc(-c2[nH]cnc2-c2ccc3ncc(-c4ccc(C(=O)O)nc4)cc3c2)n1 [Compound 541, 5-(6-(5-(6-methylpyridin-2-yl)-1H-imidazol-4-yl)quinolin-3-yl)picolinic Acid]	< 0.0316	1580 to 10000
Cc1cccc(-c2[nH]cnc2-c2ccc3ncc(C4=CC[C@H](N)CC4)cc3c2)n1 [Compound 81, (1R)-4-[6-[5-(6-methyl-2-pyridyl)-1H-imidazol-4-yl]-3-quinolyl]cyclohex-3-en-1-amine]	< 0.0316	< 20
